Where a SMILES comes first, the peptide text is derived from it. The star is where a group is joined. Cbz = O=C(OCc1ccccc1)*

Assay [1] deals with α1-ATZ mutant antitrypsin produced by human fibroblast cell line CJZ12B. Description: Electrophoretic mobility of immunoprecipitated α1-ATZ from drug-treated, 35S-labeled cells (SDS-PAGE). The class given is cell-based. The following applies: for migration of α1-ATZ compared to the 52 kD trimmed form: mannosidase inhibitors, tested as in Example 1; for migration of precipitated α1-ATZ / estimated molecular weight of the protein from treated cultures: 100 μg/ml CST or 3 mM MDNJ; for migration of precipitated α1-ATZ: 1 hour preincubation, 1.5 hours label, vs control medium; for estimated molecular weight of the protein from treated cultures: untreated form 52 kD. The text has this:
(§1) The human fibroblast cell line CJZ12B which has been transduced with anthotropic recombinant retroviral particles to result in stable production of α1-ATZ mutant antitrypsin (Gross, V., et al., Biochem. J. (1986) supra) is used to produce α1-ATZ. The α1-ATZ mutant produced is labeled by adding 350-400 μCi TRAN^35S label to the medium.
It has previously been shown that α1-ATZ mutant migrates at 52 kD in electrophoretic studies. It is believed this form is an intermediate with high mannose-type oligosaccharide side chains (Wu, Y., et al., PNAS (1994) supra). The α1-ATZ producing cell line of Preparation A was incubated for 1 hour in control serum-free medium or in serum-free medium supplemented with 100 μg/ml CST or 3 mM MDNJ. The cells were then labeled with TRAN^35S for 1.5 hours maintaining the presence of the drugs. The antitrypsin fraction was immunoprecipitated from the cell lysates, resolved by 10% SDS-PAGE and detected with the Phosphorimager system. […] The estimated molecular weight of the protein from treated cultures is 55 kD.
The effect of the mannosidase inhibitors KIF (mannosidase I), DMJ (mannosidase I and II) and an additional inhibitor, DIM (mannosidase II) on electrophoretic mobility was tested as described in Example 1.

The next assay concerns neutrophil elastase. Description: Complex formation of secreted α1-ATZ with neutrophil elastase. The class given is cell-based. Particulars: medium at 6 hours of chase, KIF (0.3 mM), DMJ (1 nM) or CST (100 μg/ml); for amount of elastase at which complexes start to form / amount of elastase for complete conversion to complexes: 30 minutes at 37°. The procedure: Both HepG2 cells, secreting wild type antitrypsin, and CJZ12B cells, which secrete the mutant, were subjected to pulse-chase conditions as described, for example, in Example 2. The mutant-secreting cells were treated with KIF (0.3 mM) DMJ (1 nM) or CST (100 μg/ml). The extracellular media from the 6 hours time point of the chase period were harvested and then incubated for 30 minutes at 37° with neutrophil elastase at various concentrations. The reaction mixtures were then immunoprecipitated with anti-antitrypsin and resolved by SDS PAGE.

The subject of assay [2] is α1-ATZ mutant antitrypsin produced by human fibroblast cell line CJZ12B. Description: Pulse-chase: disappearance of α1-ATZ from cell lysate and secretion into medium. The class given is cell-based. Particulars: for molecular weight of intracellular and secreted protein / effect on amount of secreted α1-ATZ / effect on degradation / intracellular retention of α1-ATZ / fraction of α1-ATZ secreted: DMJ 1 mM, KIF 0.3 mM; for effect on amount of secreted α1-ATZ / effect on degradation / intracellular retention of α1-ATZ: DIM 1 mM, vs control; for fraction of α1-ATZ secreted: control 0.11; for disappearance of α1-ATZ from the cell lysate vs control / secretion of the 55 kD α1-ATZ into the medium: glucosidase inhibitors, pulse-chase in presence of drug. On the procedure: as §1
The procedure of Example 1 was repeated except that after the incubation with label, the cells producing α1-ATZ were “chased” for various time intervals still in the presence of drug. At these time intervals, extracellular fluid and cell lysates were clarified, immunoprecipitated and analyzed by 8-10% SDS PAGE as previously described. (Wu, Y., et al., PNAS (1994) supra).
The pulse-chase experiments of Example 2 were repeated with the mannosidase inhibitors DMJ (1 mM) KIF (0.3 mM) and DIM (1 mM). In the presence of DMJ or KIF, the intracellular and secreted protein both have molecular weights of 52 kD. […] The half-life for disappearance of α1-ATZ from the lysate in the control is 0.95 hours and the fraction secreted is 0.11. […] (Control values were slightly different in this latter experiment.) There was no effect of DIM on degradation or secretion.

The next assay relates to α1-ATZ. Description: Cell-free ER degradation of α1-ATZ (reticulocyte lysate with canine pancreatic microsomes). The class given is biochemical. On the procedure: This system was described by Qu, D., et al., J. Biol. Chem. (1996) 271:22791-22795 cited above. In general, reticulocyte lysate cell free system supplemented with canine pancreatic microsomes was programmed with purified α1-ATZ mRNA over 60 minutes at 30° C. The microsomes were then isolated by centrifugation and incubated in a proteolysis-primed lysate at 37° for various time intervals. Aliquots were taken and the samples resolved on 10% SDS-PAGE gels.
To test the effect of drug, the reaction mixture was pre-incubated for 10 minutes at 30° C. in the absence of CST or in the presence of 100 μg/ml CST. α1-ATZ mRNA and ^35S-labeled methionine were added and translation conducted for 60 minutes at 30° C. in the absence or presence of CST. After co-translational translocation of α1-ATZ into the microsomes, the microsomes were harvested by centrifugation and the pellets suspended in […] of proteolysis-primed lysate with or without CST. The samples were incubated at 37° C. and aliquots analyzed at various time intervals.

The test system of assay [3] is α1-ATZ complexes with calnexin and GRP78/BiP. Description: Co-immunoprecipitation of α1-ATZ with chaperones from microsomes. The class given is biochemical. The procedure:
The procedure was repeated with 100 μg/ml CST present throughout and the microsomes were homogenized under nondenaturing conditions and immunoprecipitated with antibodies to calnexin and to a different chaperone, GRP78/BiP. The 52 kD form in the control was precipitated by anti-calnexin but the complex disappears between 30-45 minutes of the chase period. […] On the other hand, the 55 kD protein characteristic of the sample which includes CST is precipitated by anti-GRP78/BiP. This complex, too, disappears rapidly.

Assay [4] has as its system α1-ATZ secreted by CJZ12B cells. Description: endoH / PNGaseF digestion of α1-ATZ secreted by treated CJZ12B cells. The class given is cell-based, human. The following applies: product of drug-treated CJZ12B cells. The text has this: Wild type α1-AT is secreted from HepG2 cells with a molecular weight of 55 kD. It is resistant to digestion with endoH but is cleaved to a 46 kD polypeptide by PNGaseF.
EndoH is glycolytic only for high mannose […] carbohydrate glycosylation chains; PNGaseF cleaves any carbohydrate and would be expected to degrade the glycosylation side chains of any glycoprotein.
This 55 kD α1-ATZ polypeptide was cleaved to 46 kD by PNGaseF.
The peptide secreted by KIF treated CJZ12B cells was cleaved both by endoH and PNGaseF to a 46 kD product.

Setting [5] is: 100 μg/ml CST present throughout.

In the case of `OC[C@H]1NC[C@@H](O)[C@@H](O)[C@@H]1O` [DMJ, deoxymannojirimycin], the “migration of α1-ATZ compared to the 52 kD trimmed form” value in assay [1] was “somewhat slower migration”. For the same compound, in the assay with neutrophil elastase, the “molecular weight of α1-ATZ-elastase complexes” value was 70 kD, the “amount of elastase at which complexes start to form” value (“amount of elastase … to form” for short) amounted to 0.5 µg and the “amount of elastase for complete conversion to complexes” value (shortened to “amount of elastase … to complexes”) came out at 2 µg. For the same compound, in assay [2], the “molecular weight of intracellular and secreted protein” value stood at 52 kD; the “effect on amount of secreted α1-ATZ” value was “increase”; the “effect on degradation / intracellular retention of α1-ATZ” value is “retained intracellularly for a longer period of time”; the “fraction of α1-ATZ secreted” value amounted to 0.28.
On to `OC[C@@H](O)[C@@H]1NC[C@@H](O)[C@H]1O` [DIM], for which, in assay [2], the “effect on amount of secreted α1-ATZ” value is listed as “no effect” and the “effect on degradation / intracellular retention of α1-ATZ” value is reported as “no effect”.
As to `O[C@H]1[C@H](O)[C@@H](O)CN2CC[C@H](O)[C@H]12` [CST, castanospermine], in assay [1], the “migration of precipitated α1-ATZ” value is on record as “migrates more slowly” and the “estimated molecular weight of the protein from treated cultures” value is on record as 55 kD. Also, the “time at which the 55 kD form begins to disappear” value in the assay with α1-ATZ (100 μg/ml CST from pre-incubation on, 37° C., control 15-30 minutes) is over 30 min. For the same compound, in the assay on α1-ATZ (100 μg/ml CST from pre-incubation on, 37° C., control 30-45 minutes), the “time at which disappearance is complete” value lay in the range of 45 to 90 min. The “disappearance rate of the 52 kD form” value in the assay with α1-ATZ (CST added only during the chase period) was “same disappearance rate as the control”. In assay [3] (setting [5]), the “precipitation of 55 kD α1-ATZ by anti-GRP78/BiP” value is given as “precipitated” and the “precipitation of α1-ATZ by anti-calnexin” value is reported as “Little if any precipitate”. Further, the “total α1-ATZ co-precipitated with the anti-GRP78/BiP antibody” value in assay [3] (CST present, estimated) is reported as 5-10%. For the same compound, in the assay on neutrophil elastase, the “molecular weight of α1-ATZ-elastase complexes” value is recorded as 75 kD, the “amount of elastase … to form” value was found to be 0.5 µg and the “amount of elastase … to complexes” value is 2 µg. Further, in assay [4], the “molecular weight of product after PNGaseF cleavage” value was 46 kD; the “molecular weight of product(s) after endoH treatment” value is 46 kD, 48 kD, and 52 kD; the “sensitivity of secreted α1-ATZ to endoH” value was “partial sensitivity”. Besides, in assay [2] (100 μg/ml CST, by 6 hours of chase, untreated control 17%), the “newly synthesized 55 kD protein secreted into the medium” value turned out to be 31%. Also, in assay [2] (100 μg/ml CST, chase), the “time at which 55 kD protein disappears from the cell lysate” value lay within 2 to 4 h. Moreover, in assay [2], the “disappearance of α1-ATZ from the cell lysate vs control” value was “same rate” and the “secretion of the 55 kD α1-ATZ into the medium” value is “increase”.
On to `O=C1N[C@@H]2[C@@H](O)[C@@H](O)[C@H](O)[C@@H](CO)N2C1=O` [KIF, kifunensine], for which the “migration of α1-ATZ compared to the 52 kD trimmed form” value in assay [1] was “somewhat slower migration”. For the same compound, in the assay on neutrophil elastase, the “molecular weight of α1-ATZ-elastase complexes” value worked out at 70 kD, the “amount of elastase … to form” value was 0.5 µg and the “amount of elastase … to complexes” value amounted to 2 µg. Also, in assay [4], the “molecular weight of product after PNGaseF cleavage” value is 46 kD, the “molecular weight of product(s) after endoH treatment” value stood at 46 kD and the “sensitivity of secreted α1-ATZ to endoH” value is recorded as “cleaved”. In addition, in assay [2], the “molecular weight of intracellular and secreted protein” value worked out at 52 kD; the “effect on amount of secreted α1-ATZ” value is listed as “increase”; the “effect on degradation / intracellular retention of α1-ATZ” value is given as “retained intracellularly for a longer period of time”; the “fraction of α1-ATZ secreted” value is on record as 0.31.
In the case of `CN1C[C@H](O)[C@@H](O)[C@H](O)[C@H]1CO` [MDNJ, N-methyldeoxynojirimycin], in assay [1], the “migration of precipitated α1-ATZ” value is “migrates more slowly” and the “estimated molecular weight of the protein from treated cultures” value was 55 kD. In assay [2], the “disappearance of α1-ATZ from the cell lysate vs control” value is recorded as “accelerated over control” and the “secretion of the 55 kD α1-ATZ into the medium” value is on record as “no secretion”.
Turning to `CC(C)C[C@@H](C=O)NC(=O)[C@H](CC(C)C)NC(=O)[C@H](CC(C)C)NC(=O)OCc1ccccc1` [MG132] (Cbz-Leu-Leu-Leu-aldehyde), the “effect on alternate degradation pathway of untrimmed α1-ATZ” value in the assay on α1-ATZ (CST present) is given as “inhibited”.

The values above are taken from patent US6656912B2, “Methods to treat α1-antitrypsin deficiency” (Washington University in St. Louis, priority 2000, dated 2003).
